The compounds below were run against SOS1 binding to KRAS-WT (Homo sapiens (Human), UniProt Q07889) (assay: SOS1/KRAS WT HTRF binding assay (FRET-based protein-protein interaction assay)). Conditions: 40 nM GST-KRAS-WT, 40 nM His6-SOS1 exchange domain; at least two independent replicates.
Chain of SOS1 binding to KRAS-WT (Q07889 564-1049): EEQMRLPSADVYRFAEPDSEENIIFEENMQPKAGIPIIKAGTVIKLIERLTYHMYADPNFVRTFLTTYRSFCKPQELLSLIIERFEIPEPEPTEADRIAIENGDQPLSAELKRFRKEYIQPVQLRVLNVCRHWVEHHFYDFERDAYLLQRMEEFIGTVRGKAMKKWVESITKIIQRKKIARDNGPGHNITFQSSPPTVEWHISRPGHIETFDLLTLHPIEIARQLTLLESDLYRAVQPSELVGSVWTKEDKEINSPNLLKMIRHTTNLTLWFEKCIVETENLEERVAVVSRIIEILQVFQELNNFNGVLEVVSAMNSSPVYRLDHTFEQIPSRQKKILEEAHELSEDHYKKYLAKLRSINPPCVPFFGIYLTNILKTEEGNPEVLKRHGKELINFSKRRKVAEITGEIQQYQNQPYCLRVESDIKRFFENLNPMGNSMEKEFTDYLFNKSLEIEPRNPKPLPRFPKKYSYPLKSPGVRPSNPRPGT
Text: The capacity of compounds to inhibit SOS1 binding to KRAS-WT (wild-type) was quantified using a FRET-based protein-protein interaction assay. The assay is based on the transfer of energy between two fluorophores, a donor and an acceptor, when in close proximity. In this instance, the donor is a Europium-conjugated α-GST antibody that binds to GST-tagged KRAS-WT, and the acceptor is an XL665-conJugated α-His6 antibody that binds to His6-tagged SOS1. Binding of SOS1 to KRAS-WT results in an increased fluorescent signal at emission wavelength of 665 nm which can be detected on the EnVision plate reader. Compounds that inhibit binding will reduce the 665 nm signal emitted. Recombinant KRAS-WT protein (40 nM; Human KRAS, aal-188 recombinant protein with N-terminal GST-tag) and SOS1 protein (40 nM; Human SOS1 exchange domain, aa564-1049 with N-terminal 6His-tag) were mixed together in assay buffer (5 mM HEPES pH7.3, 150 mM NaCl, 10 mM EDTA, 5 mM MgCl2, 0.05% BSA, 0.0025% NP-40, 1 mM DTT and 100 mM KF) and incubated at room temperature with a dose response of compound in a 384-well low volume white plate and a final volume of 5 ul. After a 60 minute incubation, 5 ul of 4 nM anti-GST-Eu(K) (Cisbio, France) combined with 20 nM anti-6His-XL665 (Cisbio, France), diluted in assay buffer, was added to the plate. Following a further 4 h incubation at room temperature, time-resolved fluorescence was measured on the EnVision plate reader. DMSO (0.05%) and 10 μM reference compound were used to generate the Max and Min assay signals, respectively. Data was analyzed using a four-parameter logistic model to calculate IC50 values, with at least two independent replicates performed for each compound.
Cc1nnc(NC(C)c2cccc(C(F)(F)F)c2)c2cn(C3CCCC3)c(=O)cc12 (stereo not shown) [Compound 1, 6-cyclopentyl-1-methyl-4-[1-[3-(trifluoromethyl)phenyl]ethylamino] pyrido[3,4-d]pyridazin-7-one] was tested, and the “SOS1/KRAS WT HTRF Binding assay pIC50” value was 6.72.
With Cc1nnc(N[C@H](C)c2cccc(C(F)(F)F)c2)c2cn(C3CCCC3)c(=O)cc12 [Compound 2, 6-cyclopentyl-1-methyl-4-[[(1R)-1-[3-(trifluoromethyl)phenyl]ethyl]amino] pyrido[3,4-d]pyridazin-7-one] the “SOS1/KRAS WT HTRF Binding assay pIC50” value was 7.11.
With CCn1cc2c(N[C@H](C)c3cccc(C(F)(F)F)c3)nnc(C)c2cc1=O [Compound 3, 6-ethyl-1-methyl-4-[[(1R)-1-[3-(trifluoromethyl)phenyl]ethyl]amino] pyrido[3,4-d]pyridazin-7-one] the “SOS1/KRAS WT HTRF Binding assay pIC50” value was 6.46.
With Cc1nnc(N[C@H](C)c2cccc(C(F)(F)F)c2)c2cn(CC3CC3)c(=O)cc12 [Compound 4, 6-(cyclopropylmethyl)-1-methyl-4-[[(1R)-1-[3-(trifluoromethyl)phenyl]ethyl]amino] pyrido[3,4-d]pyridazin-7-one] the “SOS1/KRAS WT HTRF Binding assay pIC50” value was 6.52.
For Cc1nnc(N[C@H](C)c2cccc(C(F)(F)F)c2)c2cn(CC3COC3)c(=O)cc12 [Compound 5, 1-methyl-6-(oxetan-3-ylmethyl)-4-[[(1R)-1-[3-(trifluoromethyl)phenyl]ethyl]amino] pyrido[3,4-d]pyridazin-7-one], the “SOS1/KRAS WT HTRF Binding assay pIC50” value was 6.52.
With Cc1nnc(N[C@H](C)c2cccc(C(F)(F)F)c2)c2cn(CC3(C)COC3)c(=O)cc12 [Compound 6, 1-methyl-6-[(3-methyloxetan-3-yl)methyl]-4-[[(1R)-1-[3-(trifluoromethyl)phenyl]ethyl]amino] pyrido[3,4-d]pyridazin-7-one] the “SOS1/KRAS WT HTRF Binding assay pIC50” value was 6.34.
Cc1nnc(N[C@H](C)c2cccc(C(F)(F)F)c2)c2cn(C(C)C)c(=O)cc12 [Compound 7, 6-isopropyl-1-methyl-4-[[(1R)-1-[3-(trifluoromethyl)phenyl]ethyl]amino] pyrido[3,4-d]pyridazin-7-one] was tested, and the “SOS1/KRAS WT HTRF Binding assay pIC50” value was 7.02.
In the case of Cc1nnc(NC(C)c2cccc(C(F)(F)F)c2)c2cc(O[C@H]3CCOC3)cnc12 (stereo partly drawn) [Compound 9, 8-methyl-3-[(3S)-tetrahydrofuran-3-yl]oxy-N-[1-[3-(trifluoromethyl)phenyl]ethyl]pyrido[2,3-d]pyridazin-5-amine], the “SOS1/KRAS WT HTRF Binding assay pIC50” value is reported as 6.60.
Cc1nnc(N[C@H](C)c2cccc(C(F)(F)F)c2)c2cc(O[C@H]3CCOC3)cnc12 [Compound 10, 8-methyl-3-[(3S)-tetrahydrofuran-3-yl]oxy-N-[(1R)-1-[3-(trifluoromethyl)phenyl]ethyl]pyrido[2,3-d]pyridazin-5-amine] was tested, and the “SOS1/KRAS WT HTRF Binding assay pIC50” value was 6.76.
In the case of Cc1nnc(N[C@H](C)c2cccc(C(F)(F)F)c2)c2cc(C3=CCCC3)c(=O)n(C)c12 [Compound 12, 3-(cyclopenten-1-yl)-1,8-dimethyl-5-[[(1R)-1-[3-(trifluoromethyl)phenyl]ethyl]amino] pyrido[2,3-d]pyridazin-2-one], the “SOS1/KRAS WT HTRF Binding assay pIC50” value is reported as 6.96.
With Cc1nnc(N[C@H](C)c2cccc(C(F)(F)F)c2)c2cn(C3CC3)c(=O)cc12 [Compound 13, 6-cyclopropyl-1-methyl-4-[[(1R)-1-[3-(trifluoromethyl)phenyl]ethyl]amino] pyrido[3,4-d]pyridazin-7-one] the “SOS1/KRAS WT HTRF Binding assay pIC50” value was 7.20.
For Cc1nnc(NC(C)c2cccc(C(F)(F)F)c2)c2nc(O[C@H]3CCOC3)ccc12 (stereo partly drawn) [Compound 15, 5-methyl-2-[(3S)-tetrahydrofuran-3-yl]oxy-N-[1-[3-(trifluoromethyl)phenyl]ethyl]pyrido[2,3-d]pyridazin-8-amine], the “SOS1/KRAS WT HTRF Binding assay pIC50” value was 6.17.
Cc1nnc(N[C@H](C)c2cccc(C(F)(F)F)c2)c2cc(C3=CCCNC3)c(=O)n(C)c12 [Compound 16, 1,8-dimethyl-3-(1,2,3,6-tetrahydropyridin-5-yl)-5-[[(1R)-1-[3-(trifluoromethyl)phenyl]ethyl]amino] pyrido[2,3-d]pyridazin-2-one] was tested, and the “SOS1/KRAS WT HTRF Binding assay pIC50” value was 7.30.
CC(=O)N1CCCC(c2cc3c(N[C@H](C)c4cccc(C(F)(F)F)c4)nnc(C)c3n(C)c2=O)C1 (stereo partly drawn) [Compound 18, 3-(1-acetyl-3-piperidyl)-1,8-dimethyl-5-[[(1R)-1-[3-(trifluoromethyl)phenyl]ethyl]amino] pyrido[2,3-d]pyridazin-2-one] was tested, and the “SOS1/KRAS WT HTRF Binding assay pIC50” value was 7.36.
For Cc1nnc(N[C@H](C)c2cccc(C(F)(F)F)c2F)c2cc(C3CCNCC3)c(=O)n(C)c12 [Compound 23, 5-[[(1R)-1-[2-fluoro-3-(trifluoromethyl)phenyl]ethyl]amino]-1,8-dimethyl-3-(4-piperidyl)pyrido[2,3-d]pyridazin-2-one], the “SOS1/KRAS WT HTRF Binding assay pIC50” value was 7.24.

Same assay, conditions: 40 nM GST-KRAS-WT, 40 nM His6-SOS1 exchange domain; at least two independent replicates; read-out: SOS1/KRAS WT HTRF Binding assay pIC50 (converted)
Compound Cc1nnc(N[C@H](C)c2cccc(C(F)(F)F)c2)c2cn(C3CCOC3)c(=O)cc12 (mixture of isomers) [Compound 8, 1-methyl-4-[[rac-(1R)-1-[3-(trifluoromethyl)phenyl]ethyl]amino]-6-tetrahydrofuran-3-yl-pyrido[3,4-d]pyridazin-7-one] has an IC50 of 234 nM.
Work on Cc1nnc(N[C@H](C)c2cccc(C(F)(F)F)c2)c2cn(C3(C)CC3)c(=O)cc12 (racemic) [Compound 14, 1-methyl-6-(1-methylcyclopropyl)-4-[[rac-(1R)-1-[3-(trifluoromethyl)phenyl]ethyl]amino] pyrido[3,4-d]pyridazin-7-one] yielded an IC50 of 58.9 nM.
With CC(=O)N1CC=C(c2cc3c(N[C@H](C)c4cccc(C(F)(F)F)c4)nnc(C)c3n(C)c2=O)CC1 (racemic) [Compound 19, 3-(1-acetyl-3,6-dihydro-2H-pyridin-4-yl)-1,8-dimethyl-5-[[rac-(1R)-1-[3-(trifluoromethyl)phenyl]ethyl]amino] pyrido[2,3-d]pyridazin-2-one] the IC50 was 36.3 nM.
In the case of Cc1nnc(N[C@H](C)c2cccc(C(F)F)c2)c2cc(C3CCOCC3)c(=O)n(C)c12 (racemic) [Compound 20, 1,8-dimethyl-5-[[rac-(1R)-1-[3-(difluoromethyl)phenyl]ethyl]amino]-3-tetrahydropyran-4-yl-pyrido[2,3-d]pyridazin-2-one], the IC50 is reported as 93.3 nM.
Cc1nnc(N[C@H](C)c2cccc(C(F)F)c2)c2cc(C3CCN(C)CC3)c(=O)n(C)c12 (racemic) [Compound 21, 1,8-dimethyl-3-(1-methyl-4-piperidyl)-5-[[rac-(1R)-1-[3-(difluoromethyl)phenyl]ethyl]amino] pyrido[2,3-d]pyridazin-2-one] showed an IC50 of 53.7 nM.
With Cc1nnc(N[C@H](C)c2cccc(C(F)F)c2)c2cc(C3=CCCC3)c(=O)n(C)c12 [Compound 11, 3-(cyclopenten-1-yl)-5-[[(1R)-1-[3-(difluoromethyl)phenyl]ethyl]amino]-1,8-dimethyl-pyrido[2,3-d]pyridazin-2-one] the IC50 was 178 nM.
For CC(=O)N1CCC(c2cc3c(N[C@H](C)c4cccc(C(F)F)c4)nnc(C)c3n(C)c2=O)CC1 [Compound 22, 3-(1-acetyl-4-piperidyl)-5-[[(1R)-1-[3-(difluoromethyl)phenyl]ethyl]amino]-1,8-dimethyl-pyrido[2,3-d]pyridazin-2-one], the IC50 was 35.5 nM.

Source: patent publication US20250154147A1, “NOVEL AMINE-SUBSTITUTED PHTHALAZINES AND DERIVATIVES AS SOS1 INHIBITORS” (Jazz Pharmaceuticals Ireland Limited, priority 2022, published 2025)
